As usually defined, the IC50 is the concentration that inhibits the measured activity by half.

28 molecules from patent US20230058961A1, “SUBSTITUTED HETEROCYCLICS WITH THERAPEUTIC ACTIVITY IN HIV” (New York Blood Center, Inc., priority 2019, published 2023) can be followed below.

In one data set the test system is pseudovirus HIV-1 HXB2. As to the kind of experiment: organism not typed. The class given is cell-based. Conditions: anti-HIV-1 activity, single-cycle assay, TZM-bl cells, pseudovirus HIV-1 HXB2, read-out: IC50.
The subject of the next data set is TZM-bl cells. The settings on record: human, 3 days.
A short description of another data set: in vitro. Conditions: human.
The mark [1] stands for this setting: Human immunodeficiency virus 1, HXB2, TZM-bl.
Setting [2] is: CC50, cytotoxicity, TZM-bl cells, MTS, 3 days.

Description for TZM-bl cells: (§1) The anti-HIV-1 activity was assessed in a single-cycle assay by infecting TZM-bl indicator cells with the pseudovirus HIV-1 HXB2 according to established procedures (F. Curreli, Y. D. Kwon, D. S. Belov, R. R. Ramesh, A. V. Kurkin, A. Altieri, P. D. Kwong, A. K. Debnath, J Med Chem 2017, 60, 3124-3153; which is incorporated herein by reference for all that it teaches about the conduct and interpretation of the assay).
(§2) The cytotoxicity of the small polycyclic molecules in TZM-bl cells was determined by using the colorimetric method CellTiter 96® AQueous One Solution Cell Proliferation Assay (MTS) (Promega) following the manufacturer's instructions. Briefly, TZM-bl cells were platted in a 96-well tissue culture plate at 1×10^4/well and cultured at 37° C. Following overnight incubation, the cells were incubated with 100 μl of the compounds at graded concentrations and cultured for 3 days. The MTS reagent was added to the cells and incubated for 4 h at 37° C. The absorbance was recorded at 490 nm.
Description for in vitro: as §1, §2

For the molecule `NCC(NC(=O)c1ccc(-c2ccc(Cl)cn2)[nH]1)c1nc(CO)cs1` (stereo not drawn) [Compound 16, N-(2-Amino-1-(4-(hydroxymethyl)thiazol-2-yl)ethyl)-5-(5-chloropyridin-2-yl)-1H-pyrrole-2-carboxamide], the IC50 in the data set on pseudovirus HIV-1 HXB2 is 1700 ± 300 nM. For the same molecule, the CC50 with TZM-bl cells is more than 132 µM.
As to `CC(C)(N)C(NC(=O)c1ccc(-c2ccc(C(F)(F)F)cn2)[nH]1)c1ncc(CO)s1` (stereo not drawn) [Compound 10, N-(2-Amino-1-(5-(hydroxymethyl)thiazol-2-yl)-2-methylpropyl)-5-(5-(trifluoromethyl)pyridin-2-yl)-1H-pyrrole-2-carboxamide], the IC50 with pseudovirus HIV-1 HXB2 was 500 nM. In the data set with TZM-bl cells, the CC50 was found to be 41 ± 2.5 µM.
For `NCC(NC(=O)c1ccc(-c2ccc(Cl)nc2)[nH]1)c1nc(CO)cs1` (stereo not drawn) [Compound 40, N-(2-Amino-1-(4-(hydroxymethyl)thiazol-2-yl)ethyl)-5-(6-chloropyridin-3-yl)-1H-pyrrole-2-carboxamide], the IC50 with pseudovirus HIV-1 HXB2 is more than 11000 nM. Besides, in the data set on TZM-bl cells, the CC50 is more than 132 µM.
In the case of `NCC(NC(=O)c1ccc(-c2ccc(C(F)(F)F)cn2)[nH]1)c1nc(CCO)cs1` (stereo not drawn) [Compound 26, N-(2-Amino-1-(4-(2-hydroxyethyl)thiazol-2-yl)ethyl)-5-(5-(trifluoromethyl)pyridin-2-yl)-1H-pyrrole-2-carboxamide], the IC50 in the data set with pseudovirus HIV-1 HXB2 came out at 760 nM. Moreover, the CC50 with TZM-bl cells was determined as 91 ± 3.6 µM.
`NCC(NC(=O)c1ccc(-c2ncc(Cl)cn2)[nH]1)c1nc(CO)cs1` (stereo not drawn) [Compound 46, N-(2-Amino-1-(4-(hydroxymethyl)thiazol-2-yl)ethyl)-5-(5-chloropyrimidin-2-yl)-1H-pyrrole-2-carboxamide]: in the data set on pseudovirus HIV-1 HXB2, the IC50 was more than 15800 nM. In the data set on TZM-bl cells, this molecule registered a CC50 of more than 66 µM.
The like results for `NCC(NC(=O)c1ccc(-c2ccc(C(F)(F)F)cn2)[nH]1)c1ncc(CO)s1` (stereo not drawn) [Compound 6, N-(2-Amino-1-(5-(hydroxymethyl)thiazol-2-yl)ethyl)-5-(5-(trifluoromethyl)pyridin-2-yl)-1H-pyrrole-2-carboxamide] were, in that order, 1200 nM and more than 122 µM.
With `Cc1cc(-c2ccc(C(F)(F)F)cn2)[nH]c1C(=O)NC(CN)c1csc(CO)n1` (stereo not drawn) [Compound 64, N-(2-Amino-1-(2-(hydroxymethyl)thiazol-4-yl)ethyl)-3-methyl-5-(5-(trifluoromethyl)pyridin-2-yl)-1H-pyrrole-2-carboxamide], in the data set on pseudovirus HIV-1 HXB2, the 50% inhibitory concentration (IC50) came to 1300 ± 200 nM. In the data set on TZM-bl cells, the CC50 is 47.8 ± 5.9 µM.
For the molecule `CC(C)(N)C(NC(=O)c1ccc(-c2ccc(C(F)(F)F)cn2)[nH]1)c1nc(CO)cs1` (stereo not drawn) [Compound 24, N-(2-Amino-1-(4-(hydroxymethyl)thiazol-2-yl)-2-methylpropyl)-5-(5-(trifluoromethyl)pyridin-2-yl)-1H-pyrrole-2-carboxamide], the IC50 in the data set on pseudovirus HIV-1 HXB2 amounted to 580 nM. Besides, the CC50 in the data set on TZM-bl cells stood at 59 ± 10 µM.
Molecule `NCC(NC(=O)c1ccc(-c2ccc(C(F)(F)F)cn2)[nH]1)c1nc(CO)cs1` (stereo not drawn) [Compound 22, N-(2-Amino-1-(4-(hydroxymethyl)thiazol-2-yl)ethyl)-5-(5-(trifluoromethyl)pyridin-2-yl)-1H-pyrrole-2-carboxamide] registered a CC50 in the data set with TZM-bl cells of 124 ± 7 µM.
For the molecule `NCC(NC(=O)c1ccc(-c2ccc(Cl)cn2)[nH]1)c1csc(CO)n1` (stereo not drawn) [Compound 68, N-(2-Amino-1-(2-(hydroxymethyl)thiazol-4-yl)ethyl)-5-(5-chloropyridin-2-yl)-1H-pyrrole-2-carboxamide], the IC50 in the data set on pseudovirus HIV-1 HXB2 (setting [1]) is 8200 ± 2100 nM. In the data set on TZM-bl cells, this molecule gave a CC50 of more than 106 µM.
On to `Cc1ccc(-c2ccc(C(=O)NC(CN)c3nc(CO)cs3)[nH]2)nc1` (stereo not drawn) [Compound 20, N-(2-Amino-1-(4-(hydroxymethyl)thiazol-2-yl)ethyl)-5-(5-methylpyridin-2-yl)-1H-pyrrole-2-carboxamide], for which the IC50 in the data set with pseudovirus HIV-1 HXB2 (setting [1]) was more than 10000 nM; with pseudovirus HIV-1 HXB2, more than 11000 nM. This molecule came in with a CC50 in the data set on TZM-bl cells of more than 140 µM.
Consider `NCC(NC(=O)c1ccc(-c2ccc(C(F)(F)F)cn2)[nH]1)c1nc(CO)c(CO)s1` (stereo not drawn) [Compound 36, N-(2-Amino-1-(4,5-bis(hydroxymethyl)thiazol-2-yl)ethyl)-5-(5-(trifluoromethyl)pyridin-2-yl)-1H-pyrrole-2-carboxamide], for which, in the data set on pseudovirus HIV-1 HXB2, the IC50 amounted to 13000 nM. In addition, the CC50 with TZM-bl cells was more than 113 µM.
For `Cc1cc(-c2ccc(C(F)(F)F)cn2)[nH]c1C(=O)NC(CN)c1cnc(CO)s1` (stereo not drawn) [Compound 62, N-(2-Amino-1-(2-(hydroxymethyl)thiazol-5-yl)ethyl)-3-methyl-5-(5-(trifluoromethyl)pyridin-2-yl)-1H-pyrrole-2-carboxamide], in that order: 1900 ± 250 nM and 63.8 ± 2.1 µM.
Consider `NCC(NC(=O)c1ccc(-c2ccc(C(F)(F)F)cn2)[nH]1)c1csc(CO)n1` (stereo not drawn) [Compound 66, N-(2-Amino-1-(2-(hydroxymethyl)thiazol-4-yl)ethyl)-5-(5-(trifluoromethyl)pyridin-2-yl)-1H-pyrrole-2-carboxamide], for which, in the data set on pseudovirus HIV-1 HXB2, the IC50 stood at 1700 ± 200 nM. In the data set on TZM-bl cells, the CC50 turned out to be 85.1 ± 2.5 µM.
With `NCC(NC(=O)c1ccc(-c2ccc(C(F)(F)F)cn2)[nH]1)c1csc(C(=O)NCCO)n1` (stereo not drawn) [Compound 70, 4-(2-Amino-1-(5-(5-(trifluoromethyl)pyridin-2-yl)-1H-pyrrole-2-carboxamido)ethyl)-N-(2-hydroxyethyl)thiazole-2-carboxamide], the IC50 with pseudovirus HIV-1 HXB2 is more than 21300 nM. For the same molecule, the CC50 in the data set with TZM-bl cells was more than 107 µM.
`NCC(NC(=O)c1ccc(-c2ccc(C(F)(F)F)nn2)[nH]1)c1nc(CO)cs1` (stereo not drawn) [Compound 44, N-(2-Amino-1-(4-(hydroxymethyl)thiazol-2-yl)ethyl)-5-(6-(trifluoromethyl)pyridazin-3-yl)-1H-pyrrole-2-carboxamide]: the IC50 in the data set on pseudovirus HIV-1 HXB2 was more than 12000 nM. The molecule further returned a CC50 in the data set on TZM-bl cells of more than 73 µM.
As for `NCC(NC(=O)c1ccc(-c2ccc(C(F)(F)F)cn2)[nH]1)c1cnc(CO)s1` (stereo not drawn) [Compound 58, N-(2-Amino-1-(2-(hydroxymethyl)thiazol-5-yl)ethyl)-5-(5-(trifluoromethyl)pyridin-2-yl)-1H-pyrrole-2-carboxamide], the IC50 in the data set with pseudovirus HIV-1 HXB2 was found to be 2100 ± 200 nM. This molecule came in with a CC50 with TZM-bl cells of more than 122 µM.
On to `Cc1cc(-c2ccc(Cl)cn2)[nH]c1C(=O)NC(CN)c1ncc(CO)s1` (stereo not drawn) [Compound 4, N-(2-Amino-1-(5-(hydroxymethyl)thiazol-2-yl)ethyl)-5-(5-chloropyridin-2-yl)-3-methyl-1H-pyrrole-2-carboxamide], for which, in the data set on pseudovirus HIV-1 HXB2, the IC50 came out at 2400 ± 200 nM. Moreover, in the data set on TZM-bl cells, the CC50 is 95 ± 3.6 µM.
For the molecule `NCC(NC(=O)c1ccc(-c2ccc(C(F)(F)F)nc2)[nH]1)c1nc(CO)cs1` (stereo not drawn) [Compound 42, N-(2-Amino-1-(4-(hydroxymethyl)thiazol-2-yl)ethyl)-5-(6-(trifluoromethyl)pyridin-3-yl)-1H-pyrrole-2-carboxamide], the IC50 in the data set on pseudovirus HIV-1 HXB2 came to 11900 ± 1900 nM. The molecule also registered a CC50 with TZM-bl cells of more than 122 µM.
In the case of `NCC(NC(=O)c1ccc(-c2ccc(C(F)(F)F)cn2)[nH]1)c1nccs1` (stereo not drawn) [Compound 38, N-(2-Amino-1-(thiazol-2-yl)ethyl)-5-(5-(trifluoromethyl)pyridin-2-yl)-1H-pyrrole-2-carboxamide], the IC50 in the data set with pseudovirus HIV-1 HXB2 stood at 1200 ± 30 nM. The molecule further registered a CC50 with TZM-bl cells of 93.6 ± 1.5 µM.
Regarding `NCC(NC(=O)c1ccc(-c2ccc(F)cn2)[nH]1)c1nc(CO)cs1` (stereo not drawn) [Compound 18, N-(2-Amino-1-(4-(hydroxymethyl)thiazol-2-yl)ethyl)-5-(5-fluoropyridin-2-yl)-1H-pyrrole-2-carboxamide], the 50% inhibitory concentration (IC50) in the data set on pseudovirus HIV-1 HXB2 is more than 11000 nM. In the data set on TZM-bl cells, this molecule yielded a CC50 of more than 138 µM.
Regarding `NCC(NC(=O)c1ccc(-c2ccc(C(F)(F)F)cn2)[nH]1)c1nc(C(O)CO)cs1` (stereo not drawn) [Compound 30, N-(2-Amino-1-(4-(1,2-dihydroxyethyl)thiazol-2-yl)ethyl)-5-(5-(trifluoromethyl)pyridin-2-yl)-1H-pyrrole-2-carboxamide], the IC50 in the data set on pseudovirus HIV-1 HXB2 came out at 3800 ± 200 nM. For the same molecule, the CC50 in the data set on TZM-bl cells is more than 113 µM.
The like results for `COc1cc(-c2ccc(C(=O)NC(CN)c3nc(CO)cs3)[nH]2)ccn1` (stereo not drawn) [Compound 48, N-(2-Amino-1-(4-(hydroxymethyl)thiazol-2-yl)ethyl)-5-(2-methoxypyridin-4-yl)-1H-pyrrole-2-carboxamide] were, in that order, more than 11000 nM and more than 133 µM.
Molecule `Cc1cc(-c2ccc(C(F)(F)F)cn2)[nH]c1C(=O)NC(c1ncc(CO)s1)C(C)(C)N` (stereo not drawn) [Compound 12, N-(2-Amino-1-(5-(hydroxymethyl)thiazol-2-yl)-2-methylpropyl)-3-methyl-5-(5-(trifluoro-methyl)pyridin-2-yl)-1H-pyrrole-2-carboxamide] yielded a CC50 with TZM-bl cells of 37.5 ± 2.2 µM.
Consider `Cc1cc(-c2ccc(C(F)(F)F)cn2)[nH]c1C(=O)NC(c1ncc(CO)s1)C(C)(C)N` (stereo not drawn) [Compound 11, N-(2-Amino-1-(5-(hydroxymethyl)thiazol-2-yl)-2-methylpropyl)-3-methyl-5-(5-(trifluoro-methyl)pyridin-2-yl)-1H-pyrrole-2-carboxamide], for which the IC50 in the data set with pseudovirus HIV-1 HXB2 is 600 ± 200 nM. For the same molecule, the CC50 at 3 days in “in vitro” (CC50) was 35.3 ± 2 µM; in “in vitro” (setting [2]), less than 50 µM.
Regarding `CC(CN)(NC(=O)c1ccc(-c2ccc(C(F)(F)F)cn2)[nH]1)c1nc(CO)cs1` (racemic) [Compound 32, N-(1-Amino-2-(4-(hydroxymethyl)thiazol-2-yl)propan-2-yl)-5-(5-(trifluoromethyl)pyridin-2-yl)-1H-pyrrole-2-carboxamide], the IC50 in the data set with pseudovirus HIV-1 HXB2 (setting [1]) is 5100 ± 400 nM. In the data set “in vitro” (CC50), this molecule registered a CC50 at 3 days of more than 70.5 µM.
Regarding `NCC(NC(=O)c1ccc(-c2ccc(C(F)(F)F)cn2)[nH]1)c1nc(CCO)cs1` (stereo not drawn) [Compound 25, N-(2-Amino-1-(4-(2-hydroxyethyl)thiazol-2-yl)ethyl)-5-(5-(trifluoromethyl)pyridin-2-yl)-1H-pyrrole-2-carboxamide], the IC50 in the data set with pseudovirus HIV-1 HXB2 was determined as 1700 nM. In addition, the CC50 at 3 days in “in vitro” (CC50) was 100 ± 7 µM.
Turning to `Cc1ccc(-c2ccc(C(=O)NC(CN)c3nc(CO)cs3)[nH]2)nc1` (stereo not drawn) [Compound 19, N-(2-Amino-1-(4-(hydroxymethyl)thiazol-2-yl)ethyl)-5-(5-methylpyridin-2-yl)-1H-pyrrole-2-carboxamide], the IC50 with pseudovirus HIV-1 HXB2 was 9600 ± 1200 nM. The CC50 at 3 days is more than 140 µM in the data set “in vitro” (CC50) and more than 100 µM in “in vitro” (setting [2]).
